Key:
rats [1] = test: Forced swim test (FST) after microinjection; assay type: in vivo; conditions: versus controls
Text: (§1) This is indicative of less depression-like behavior in FGF2 animals.
(§2) Again, this is an index of less depression-like behavior. This is also in the same direction as the FGF2 data, consistent with the fact that both FGF2 and NCAM interact with the FGF receptor.
(§3) These observations are nevertheless consistent with the conclusions drawn from the microinjection studies above.

rats [2] = test: Elevated plus maze (EPM) after acute microinjection; assay type: in vivo; conditions: versus controls
Text: as §1, §2, §3

rats [3] = test: Elevated plus-maze (EPM) and light-dark (LD) anxiety tests after chronic FGF2; assay type: in vivo; conditions: 5 ng/g i.p. every 48 hours for 3 weeks
Method: Anxiety disorders have a high comorbidity with other neuropsychiatric disorders including Major Depression (MD). […] Rats were placed into “high anxiety” (LR) or “low anxiety” (HR) groups based on their behavior in a variety of motor and behavioral tests. Both groups of animals were administered either FGF2 (5 ng/g) or vehicle by intraperitoneal injection every 48 hours for 3 weeks. One day after the last FGF2 injection, all animals were tested in the elevated plus-maze (EPM) and light-dark (LD) anxiety test.
The apparatus for the EPM test is constructed of black Plexiglass with […] (70 cm from the floor, 45 cm long, and 12 cm wide). Illumination is provided by a 40-watt desk lamp facing a wall and placed behind one of the closed arms. The scientists put the animal inside the system. Animals that are less anxious spend more time in the open arms whereas animals that are more anxious spend less time in the open arms.
The LD test is conducted in a 30×60×30-cm Plexiglas shuttle box with a translucent cover. Each box is divided into two equal-sized compartments by a wall with a 12 cm-wide open door. One compartment is painted white and brightly illuminated, and the other is painted black with very dim light. The time each rat spends in each compartment is monitored by rows of five photocells located 2.5 cm above the grid floor of each compartment. […]

Sprague-Dawley rats = test: Morris water maze learning and memory test in adults after early postnatal FGF2; assay type: in vivo; conditions: 20 ng/g s.c. the day after birth, tested as adults
Method: (§4) Methods. Sprague-Dawley rats were injected with either vehicle or FGF2 (20 ng/g, s.c.) the day after birth and sacrificed after Morris water maze testing as adults. We assessed changes in gene expression using both a candidate approach and a gene discovery approach with laser-capture microdissection of the dentate gyrus followed by microarray analyses.

[4] = system: FGFR2 and FGFR3 exon IIIc:IIIb splice variants; test: Real time RT-PCR of exon IIIc:IIIb splice variant ratio in frontal cortex, chronic unpredictable stress; assay type: in vivo, rats; conditions: 5 ng/g i.p. every 48 hours for three weeks
Method: Animals. Twenty-four male Sprague-Dawley rats weighing 220-250 g were ordered from Charles River (Wilmington, Mass.) and remained undisturbed for one week to acclimatize to housing conditions. The animals were housed in pairs on a 12 h light-dark cycle (lights on 6:00 A.M.) with food and water available ad libitum. All experiments were conducted in accordance with the NIH Guide for the Care and Use of Animals and the University Committee on the Use and Care of Animals.
FGF2 injection treatments and chronic unpredictable stress (CUS) conditions. […]
Total RNA extraction. […] Using the Bioanalyzer's concentration readings, the samples were normalized to 25 ng/μL of total RNA per subject and stored at −80° C.
cDNA synthesis. cDNA was synthesized using the iScript cDNA Synthesis Kit (Bio-Rad, Hercules, Calif.). […] The double-stranded cDNA solutions were then analyzed for quality and concentration using Invitrogen's Quant-iT PicoGreen dsDNA kit. […] The fluorescently labeled samples were analyzed with a 1420 Victor^2 Multilabel Counter (EG&G Wallac, Wellesley, Mass.) using the basic Fluorescein protocol. […]
Real time RT-PCR primer design. […] Exon sequences were analyzed using NCBI's nucleotide and protein BLAST and were matched with their corresponding protein products within the receptor structures (FIG. 11). […]

[5] = system: GAP-43, Rgs4, trkb, CCK, SST, Vgf, NCAM expression; test: Hippocampal (dentate gyrus) gene expression in adult rats after early postnatal FGF2; assay type: in vivo; conditions: FGF2 20 ng/g s.c. the day after birth
Method: as §4
Results. […] Several genes associated with neural plasticity were also found altered in the adult rats, as shown by histochemical and RNA expression assays. For example, expression of GAP-43, Rgs4, trkb, CCK, SST, and Vgf was increased, while expression of NCAM was decreased.

Substance	immobility in FST (rats [1])	time in the center quadrant of EPM (rats [2])	time in the closed arms of EPM (rats [2])	time in the open arms of EPM (rats [2])	anxiety versus vehicle animals (rats [3]; tested one day after last injection)	anxiety-reducing effect in innately more anxious (LR) rats (rats [3]; LR versus HR rats)	time on average to find a hidden platform in Morris Water maze test (Sprague-Dawley rats) [s]	performance in learning and memory tests (Sprague-Dawley rats; versus vehicle)	effect on magnitude of IIIc:IIIb ratio changes caused by stress [4]	effect on exon IIIc:IIIb ratio ([4]; NS or S group, P>0.1)	swimming in FST (rats [1])	expression of CCK [5]	expression of NCAM [5]	expression of Rgs4 [5]	expression of SST [5]	expression of Vgf [5]	expression of trkb [5]	expression of GAP-43 ([5]; histochemical and RNA expression assays)	climbing in FST (rats [1])
EVYVVAENQQGKSKA [NCAM]	less immobility	significantly less time	more time (although not significantly more time)	less time	–	–	–	–	–	–	–	–	–	–	–	–	–	–	–
FGF2: human recombinant FGF2 (Sigma); ligand of the FGF receptor	less immobility	–	significantly more time	less time	less anxious	clearly more pronounced	20	significantly better	nor did it significantly affect	did not alter the IIIc:IIIb ratio significantly	more swimming	increased	decreased	increased	increased	increased	increased	increased	–
HFKDPKRLY [FGF system peptide inhibitor]	more immobility	significantly more time	less time	equal time	–	–	–	–	–	–	less swimming	–	–	–	–	–	–	–	significantly less climbing

Reference: patent US20090019557A1, “FGF2-RELATED METHODS FOR DIAGNOSING AND TREATING DEPRESSION” (priority 2005, published 2009)
